Assay results reported in patent publication US20220098547A1, “HYDROGEL BIOMIMETIC FOR INVASIVE DISEASES” (priority 2018, published 2022).

How the values were obtained:
VEGF-A = details: some glioblastoma patients; cited from earlier work
TSC2+/− LAM-SMCs [1] = assay: Cell viability (SyTox Green), LAM-SMCs; assay type: cell-based, human; details: for cell viability, selectivity towards LAM-SMCs vs control SMCs: 80 kinase inhibitor screen, 5 μM, 384-well 3D hydrogel
Description: (§1) HA (230 kDa) was functionalized with furfurylamine as previously described^[16] Furanyl-modified HA/MMPx-(maleimide)2 hydrogels were prepared as previously described ^[16] with the following modifications: To prepare 1.0 mL of 0.9% HA hydrogel with 25 μM vitronectin peptide for SMC culture, HA-furanyl (65% furanyl substitution, 9.0 mg HA, 13.3 μmol furanyl) was dissolved in 450 μL of dPBS (adjusted to pH 6.5), and added to 357.7 μL of dPBS (pH 6.5). 150.1 μL of maleimide2-MMP-degradable crosslinker peptide dissolved in 0.1 M MES buffer (pH 5.5, 50 mg/mL, 2.8 μmol of peptide, 5.6 μmol of maleimide) and 3.75 μL of maleimide-vitronectin peptide dissolved in 0.1 M MES buffer (pH 5.5, 12 mg/mL, 25 nmol) were added to the HA-furanyl solution and carefully mixed to prevent the formation of air bubbles. 38.5 μL of a thiolated methyl cellulose solution (2.6 mg/mL MC-SH in DI H2O, 100 nmolfree thiols/mgMC) was then added to this solution and mixed carefully with a pipette. Hydrogel formulations were tuned for lung cancer cells. For culturing primary cells from lung cancer tissue biopsies, 100 μM vitronectin peptides were used. For NCI-H1299, NCI-H446 and human bronchial epithelial cells, 100 μM vitronectin peptides and 100 μM fibronectin peptides were used. To prepare gels in 384-well plates, 15 μL of the hydrogel solutions were added to each well in a 384-well plate and placed in the incubator overnight at 37° C.
(§2) Excess sterile water was then added to wells lining the outside of the plates to prevent hydrogel evaporation. […] Gels were then equilibrated with either RPMI-1640 containing 1% FBS (for lung cancer cells) or M231 SMC media (75 μL, >45 mins). Media was then removed, and for SMC culture, 15 μL of M231 supplemented with 25% SMGS (containing a final FBS concentration of 1%) was added into each well for at least 1 h prior to cell seeding. For drug treatment assays, this 15 μL volume of M231 with 25% SMGS also includes a 5× concentration of the desired drug. For larger drug screening assays, Y-27632 (Rock inhibitor, 10 μM) was used as a negative control for cell invasion, and verteporfin (1 μM) was used as a positive control for cell toxicity (SyTox Green staining). For lung cancer cell culture, cells in RPMI media containing 1% FBS was added to each well.
(§3) SMCs were cultured according to reported protocols.^[12a] In brief, cells were cultured in M231 media with Smooth Muscle Growth Supplement (SMGS) and gentamycin (ThermoFisher Scientific) at 37° C. with 5% CO2. Cells were passaged using 0.05% trypsin/EDTA for 3 min at 37° C., and inhibited using M231 media. 3000 cells in 45 μL of M231 without SMGS were added to each well of a 384-well plate containing 3D HA hydrogels.
(§4) After 5 days of culture in 3D HA gels, 30 μL media was carefully removed. To each well, 20 μL of a solution containing SyTox Green (1/50,000) in PBS was added and incubated for 1.5 h at 37° C. Gels were then carefully washed with PBS twice. Cells were then fixed with 4% PFA for 1.5 h in the dark at room temperature. PFA was removed and gels were washed with PBS. A solution of Hoechst (1/1000, 20 μL) was then added to each well for at least 1.5 h in the dark, followed by washing with PBS (3 times). To label the gel surface, fluorescent microspheres (100 nm, orange, Phosphorex) were diluted in PBS (1/100) and centrifuged to separate larger, aggregated microspheres. 20 μL of the resulting supernatant were then added to each well and the 384-well plate was left undisturbed overnight. For drug screening experiments involving treatment with 80 drugs simultaneously, silica gel particles (40-63 μm, 230-400 mesh, SiliCycle) were used to label the […]. A slurry solution (5 mg/mL) of silica gel particles in PBS containing 0.01% sodium azide was mixed and immediately added to each well. Particles settled after 20 seconds and plates could be immediately imaged.
(§5) Z-stacked images were obtained using a Cellomics high content imaging instrument as described above. […]

TSC2+/− LAM-SMCs [2] = assay: Cell invasion into 3D HA hydrogels, LAM-SMCs; assay type: cell-based, human; details: for invasion, selectivity towards LAM-SMCs vs control SMCs: 80 kinase inhibitor screen, 5 μM, 384-well 3D hydrogel
Description: as §1, §2, §3, §4, §5

MMP9 = assay: Gelatin zymography of conditioned media (MMP9 secretion), LAM-SMCs; assay type: cell-based, human; details: Y-27632 treatment (10 μM per FIG. 8 legend)
Description: After 1 day of culture, conditioned media from 384-well plates was collected from each well for gelatin zymography. 8% polyacrylamide (PA) gels were used, and were prepared as previously described^[22] In general, the separating gel component of the zymography gels comprised 7.5 mL of 1.5 M Tris buffer (pH 8.8), 8.0 mL polyacrylamide solution (30%), 10.2 mL gelatin A (3 mg/mL), 2.7 mL water, 300 μL SDS, 300 μL 10% ammonium persulfate, and 36 μL TEMED. The separating gel was allowed to gel for 40 min at room temperature. The stacking gel was then prepared by mixing 5.0 mL of 0.5 M Tris buffer (pH 6.8), 2.6 mL polyacrylamide solution (30%), 12.2 mL water, 200 μL SDS, 150 μL 10% ammonium persulfate, and 30 μL TEMED. The stacking gel was poured on top of each gel and allowed to sit for 40 mins.
For each sample, 12 μL of conditioned media was mixed with 3 μL loading dye, and 12 μL was loaded into each lane. Running buffer comprising 25 mM Tris, 190 mM glycine and 0.1% SDS was used for gel electrophoresis. Following protein separation on the PA gels, gels were washed in 2.5% Triton X (3 times, 10 min each) to remove residual SDS, followed by DI water (5 times, 30 min each). Gels were then placed in an incubation buffer (50 mM Tris buffer pH 7.5 containing 5 mM CaCl2, 200 mM NaCl) and incubated at 37° C. overnight. […]

TSC2+/+ control SMCs = assay: Cell invasion into 3D HA hydrogels, control SMCs; assay type: cell-based, human; details: Y-27632 treatment (10 μM per FIG. 8 legend)
Description: as §1, with “To prepare gels in 384-well plates, 15 μL of the hydrogel solutions were added to each well in a 384-well plate and placed in the incubator overnight at 37° C.” left out

Chain of VEGF-A (P15692 207-311 limits assumed): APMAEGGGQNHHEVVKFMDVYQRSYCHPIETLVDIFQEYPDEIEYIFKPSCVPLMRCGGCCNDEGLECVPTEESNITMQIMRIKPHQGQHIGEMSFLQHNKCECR

## bevacizumab
VEGF-A
  tumor metastasis: increased tumor metastasis
  tumor size: decreased tumor sizes

## Cc1ncc(-c2ccnc(Nc3ccc(S(C)(=O)=O)cc3)n2)n1C(C)C [AZD5438]
TSC2+/− LAM-SMCs [1]
  cell viability, selectivity towards LAM-SMCs vs control SMCs: selective decrease
TSC2+/− LAM-SMCs [2]
  invasion, selectivity towards LAM-SMCs vs control SMCs: selective decrease

## CC(C)CC(=O)Nc1[nH]nc2c1CN(C(=O)C1CCN(C)CC1)C2(C)C [PHA-793887]
TSC2+/− LAM-SMCs [1]
  cell viability, selectivity towards LAM-SMCs vs control SMCs: selective decrease
TSC2+/− LAM-SMCs [2]
  invasion, selectivity towards LAM-SMCs vs control SMCs: selective decrease

## CNC(=O)[C@H](Cc1c[nH]c2ccccc12)NC(=O)[C@@H](CC(=O)NO)CC(C)C [GM6001]
TSC2+/− LAM-SMCs [2]; 10 μM, invasive LAM-SMCs, 3D hydrogels
  cell invasion: modest, yet statistically significant decrease in cell invasion

## C[C@@H](N)[C@H]1CC[C@H](C(=O)Nc2ccncc2)CC1 [Y-27632]
TSC2+/− LAM-SMCs [1]; Y-27632 treatment (10 μM per FIG. 8 legend), LAM-SMCs, 3D HA gels
  cell viability: neither cell viability nor MMP9 secretion levels of LAM-SMCs were affected
MMP9
  MMP9 secretion levels: neither cell viability nor MMP9 secretion levels of LAM-SMCs were affected
TSC2+/+ control SMCs
  cell invasion: significantly decreased cell invasion
TSC2+/− LAM-SMCs [2]; Y-27632 treatment (10 μM per FIG. 8 legend), LAM-SMCs
  cell invasion: significantly decreased cell invasion

## Cc1cc(Nc2cc(N3CCN(C)CC3)nc(/C=C/c3ccccc3)n2)n[nH]1 [ENMD-2076]
TSC2+/− LAM-SMCs [1]
  cell viability, selectivity towards LAM-SMCs vs control SMCs: selective decrease
TSC2+/− LAM-SMCs [2]
  invasion, selectivity towards LAM-SMCs vs control SMCs: selective decrease

## Nc1nc(Nc2ccc(S(N)(=O)=O)cc2)nn1C(=S)Nc1c(F)cccc1F [Cdk1/2 inhibitor]
TSC2+/− LAM-SMCs [1]
  cell viability, selectivity towards LAM-SMCs vs control SMCs: selective decrease
TSC2+/− LAM-SMCs [2]
  invasion, selectivity towards LAM-SMCs vs control SMCs: selective decrease

## CN1CCC(c2c(O)cc(O)c3c(=O)cc(-c4ccccc4Cl)oc23)C1CO (single isomer, unassigned; (+)) [(+)-P276]
TSC2+/− LAM-SMCs [1]
  cell viability, selectivity towards LAM-SMCs vs control SMCs: selective decrease
TSC2+/− LAM-SMCs [2]
  invasion, selectivity towards LAM-SMCs vs control SMCs: selective decrease

## TC-A 2317 NCI
TSC2+/− LAM-SMCs [1]
  cell viability, selectivity towards LAM-SMCs vs control SMCs: selective decrease
TSC2+/− LAM-SMCs [2]
  invasion, selectivity towards LAM-SMCs vs control SMCs: selective decrease
